Article PMC7070908, “Structure-Guided Identification of Black Cohosh (Actaea racemosa) Triterpenoids with In Vitro Activity against Multiple Myeloma” (Molecules, 2020)
Values after ≈ are worked out from the molar mass of the structure shown. Values joined by “and” are separate entries in the source; they are usually repeats but may differ in a detail not shown here. Equal values may be shown once.

Experiments:
MCF7 breast cancer cells = tested on: MCF7 breast cancer cells; parameters: method as in PMID 14758092; settings: incubation times of 96 h; cited from earlier work
U266 myeloma cell line = assay: Cytotoxicity, flow cytometry (AnnexinV/propidium iodide negativity), U266; type: cell-based, human; settings: for activity on U266 (in words): up to 37.5 µM
Procedure: (§1) Induction of apoptosis was measured in myeloma cell lines NCI-H929, OPM-2, and U266 as well as in peripheral blood mononuclear cells (PBMCs) of healthy donors by flow cytometry using established protocols thereby staining the cells with AnnexinV-fluorescein isothiocyanate and propidium iodide. Bortezomib (Eubio, Vienna, Austria) was used as positive control. Cell lines were purchased from DSMZ (Braunschweig, Germany) and routinely fingerprinted and tested for mycoplasma negativity. All cells (cell lines and PBMC) were grown in RPMI-1640 medium (Life Technologies, Paisley, UK) supplemented with 10% fetal calf serum (FCS; PAA, Linz, Austria), L-glutamine 100 µg/mL, and penicillin-streptomycin 100 U/mL. PBMCs from healthy donors were used after obtaining written informed consent at the University Hospital Salzburg (ethics committee approval 415-E/1287/6-2011). Cells were subjected to Ficoll separation (Ficoll PaqueTM) and incubated in RPMI-1640 Media with supplements as above. In brief, 0.5 × 10^6 myeloma cells/mL or similar numbers of PMBCs were incubated for 24 h and 48 h with or without the tested compounds dissolved in dimethyl sulfoxide at different concentrations. At least three analyses in triplicates were performed for each cell line and a solvent control was always included. As a positive control, the proteasome inhibitor bortezomib (BTZ) was used at concentrations of 10 and 5 nM. The extent of non-apoptotic cells (AnnexinV/propidium iodide negativity) was calculated as percentage of viable cells in respect to the untreated control. Data are shown as mean percentage of viable cells and standard error of the mean (SEM) (error bars).

[1] = tested on: NCI-H929 myeloma cell line; assay: Cytotoxicity, flow cytometry (AnnexinV/propidium iodide negativity), NCI-H929; type: cell-based, human; settings: for activity on NCI-H929 (in words): up to 37.5 µM
Procedure: as §1

OPM-2 myeloma cell line = assay: Cytotoxicity, flow cytometry (AnnexinV/propidium iodide negativity), OPM-2; type: cell-based, human; settings: for activity on OPM-2 (in words): up to 37.5 µM
Procedure: as §1

[2] = tested on: peripheral blood mononuclear cells (PBMCs) of healthy donors; assay: Cytotoxicity, flow cytometry (AnnexinV/propidium iodide negativity), PBMC of healthy donors; type: cell-based, human
Procedure: as §1

[3] = tested on: doxorubicin-resistant-MCF7 (R-MCF7) cells; parameters: method as in PMID 20564500; settings: cited from earlier work; for IC50 R-MCF7: doxorubicin-resistant MCF7, 48 h of incubation
MCF7 cells = tested on: MCF7 cells; parameters: method as in PMID 20564500; settings: cited from earlier work; for IC50 MCF7: 48 h of incubation
[4] = 5 nM, 24 h, positive control (Table 3)
[5] = 10 nM, 24 h, positive control (Table 3)
[6] = 25 µM, 24 h, % of untreated control, mean ± SEM (Table 1)
[7] = 25 µM, 48 h, % of untreated control, mean ± SEM (Table 2)
[8] = 50 µM, 24 h, % of untreated control, mean ± SEM (Table 1)
[9] = 50 µM, 48 h, % of untreated control, mean ± SEM (Table 2)
[10] = 12.5 µM, 24 h, second round (Table 3)
[11] = 25 µM, 24 h, second round (Table 3)
[12] = 37.5 µM, 24 h, second round (Table 3)

Compound	IC50 growth inhibition of MCF7 breast cancer cells (MCF7 breast cancer cells) [µg/mL]	PBMC % Alive [2, 10] [%]	PBMC % Alive [2, 11] [%]	PBMC % Alive [2, 12] [%]	MM Cells % Alive U266 (U266 myeloma cell line; [10]) [%]	MM Cells % Alive U266 (U266 myeloma cell line; [11]) [%]	MM Cells % Alive U266 (U266 myeloma cell line; [12]) [%]	MM Cells % Alive NCI-H929 [1, 10] [%]	MM Cells % Alive NCI-H929 [1, 11] [%]	MM Cells % Alive NCI-H929 [1, 12] [%]	MM Cells % Alive OPM-2 (OPM-2 myeloma cell line; [10]) [%]	MM Cells % Alive OPM-2 (OPM-2 myeloma cell line; [11]) [%]	MM Cells % Alive OPM-2 (OPM-2 myeloma cell line; [12]) [%]	activity on U266 (in words) (U266 myeloma cell line; 24 h)	activity on NCI-H929 (in words) ([1]; 24 h)	activity on OPM-2 (in words) (OPM-2 myeloma cell line; 24 h)	further results
CC(=O)O[C@@H]1C[C@@]23C[C@@]24CC[C@H](O[C@@H]2OC[C@@H](O)[C@H](O)[C@H]2O)C(C)(C)[C@@H]4CC[C@H]3[C@]2(C)C[C@@H]3O[C@@]4(C[C@@H](C)[C@@H]3[C@@]12C)OC[C@@]1(C)O[C@@H]41 [23-epi-26-deoxyactein]	21	–	–	–	–	–	–	–	–	–	–	–	–	–	–	–	–
CC(C)C[C@H](NC(=O)[C@H](Cc1ccccc1)NC(=O)c1cnccn1)B(O)O [BTZ, bortezomib, reference compound]	–	–	–	–	–	–	–	–	–	–	–	–	–	–	–	–	MM Cells % Alive U266 (U266 myeloma cell line; [4]): 80.7 ± 14.1%; MM Cells % Alive U266 (U266 myeloma cell line; [5]): 25.0 ± 8.3%; MM Cells % Alive NCI-H929 [1, 4]: 3.0 ± 1.0%; MM Cells % Alive NCI-H929 [1, 5]: 6.3 ± 5.4%; MM Cells % Alive OPM-2 (OPM-2 myeloma cell line; [4]): 85.3 ± 7.6%; MM Cells % Alive OPM-2 (OPM-2 myeloma cell line; [5]): 66.0 ± 9.4%
CC(=O)O[C@@H]1C[C@@]23C[C@@]24CC[C@H](O[C@@H]2OC[C@@H](O)[C@H](O)[C@H]2O)C(C)(C)[C@@H]4CC[C@H]3[C@]2(C)C[C@@H]3O[C@]4(C[C@@H](C)[C@@H]3[C@@]12C)O[C@H](O)[C@@]1(C)O[C@@H]41 [Compound 1, actein]	14	–	–	–	–	–	–	–	–	–	–	–	–	–	–	–	PBMC % Alive [2, 6]: 96.4 ± 0.1%; PBMC % Alive [2, 7]: 94.6 ± 0.2%; PBMC % Alive [2, 8]: 85.6 ± 1.2%; PBMC % Alive [2, 9]: 74.9 ± 1.2%; MM Cells % Alive U266 (U266 myeloma cell line; [6]): 90.2 ± 4.1%; MM Cells % Alive U266 (U266 myeloma cell line; [7]): 81.0 ± 5.9%; MM Cells % Alive U266 (U266 myeloma cell line; [8]): 75.1 ± 6.4%; MM Cells % Alive U266 (U266 myeloma cell line; [9]): 35.5 ± 6.7%; MM Cells % Alive NCI-H929 [1, 6]: 80.5 ± 5.9%; MM Cells % Alive NCI-H929 [1, 7]: 70.2 ± 4.3%; MM Cells % Alive NCI-H929 [1, 8]: 48.2 ± 10.9%; MM Cells % Alive NCI-H929 [1, 9]: 13.2 ± 2.4%; MM Cells % Alive OPM-2 (OPM-2 myeloma cell line; [6]): 93.2 ± 3.7%; MM Cells % Alive OPM-2 (OPM-2 myeloma cell line; [7]): 93.1 ± 2.4%; MM Cells % Alive OPM-2 (OPM-2 myeloma cell line; [8]): 81.1 ± 4.7%; MM Cells % Alive OPM-2 (OPM-2 myeloma cell line; [9]): 67.3 ± 6.7%
CC(=O)OC(C)(C)C1OC23OC1CC(C)C2C1(C)CCC24CC25CCC(OC2OCC(O)C(O)C2O)C(C)(C)C5CCC4C1(C)C3O [Compound 3, 25-O-acetylcimigenol-3-O-α-L-arabinopyranoside]	–	101.7 ± 0.3	98.3 ± 2.0	58.7 ± 12.7	95.0 ± 2.4	77.8 ± 4.6	48.0 ± 7.4	93.3 ± 1.8	59.5 ± 7.8	11.8 ± 4.3	99.5 ± 2.0	88.8 ± 1.8	70.8 ± 11.5	–	–	–	PBMC % Alive [2, 6]: 86.5 ± 2.7%; PBMC % Alive [2, 7]: 76.2 ± 1.8%; PBMC % Alive [2, 8]: 6.1 ± 1.5%; PBMC % Alive [2, 9]: 4.6 ± 0.1%; IC50 ([2]; Homo sapiens, PBMC, 24 h, incubation for 24 h): 25.9 µg/mL (≈ 39.1 µM); MM Cells % Alive U266 (U266 myeloma cell line; [6]): 89.3 ± 3.2%; MM Cells % Alive U266 (U266 myeloma cell line; [7]): 66.8 ± 9.5%; MM Cells % Alive U266 (U266 myeloma cell line; [8]): 13% and 12.9 ± 3.5%; IC50 (U266 myeloma cell line; Homo sapiens, U-266, 24 h, incubation for 24 h): 24.7 µg/mL (≈ 37.3 µM); MM Cells % Alive NCI-H929 [1, 6]: 52.9 ± 7.1%; MM Cells % Alive NCI-H929 [1, 7]: 18.9 ± 3.3%; MM Cells % Alive NCI-H929 [1, 8]: 10% and 10.3 ± 2.8%; IC50 ([1]; Homo sapiens, NCI-H929, 24 h, incubation for 24 h): 18.1 µg/mL (≈ 27.3 µM); MM Cells % Alive OPM-2 (OPM-2 myeloma cell line; [6]): 63.8 ± 12%; MM Cells % Alive OPM-2 (OPM-2 myeloma cell line; [7]): 43.4 ± 9.3%; MM Cells % Alive OPM-2 (OPM-2 myeloma cell line; [8]): 20% and 19.7 ± 5.7%; IC50 (OPM-2 myeloma cell line; Homo sapiens, OPM-2, 24 h, incubation for 24 h): > 37.5 µg/mL; IC50 R-MCF7 [3]: 5.3 µg/mL (≈ 8 µM); IC50 MCF7 (MCF7 cells): 4.0 µg/mL (≈ 6.03 µM)
CC(=O)OC(C)(C)C1OC23OC1CC(C)C2C1(C)CCC24CC25CCC(OC2OCC(O)C(O)C2O)C(C)(C)C5CCC4C1(C)C3O [Compound 4, 25-O-acetylcimigenol-3-O-β-D-xylopyranoside]	–	96.7 ± 2.9	72.7 ± 5.4	28.7 ± 5.9	91.8 ± 4.2	87.8 ± 2.0	88.0 ± 1.2	84.3 ± 8.6	59.5 ± 8.7	27.8 ± 6.6	94.8 ± 5.3	90.3 ± 3.7	56.0 ± 13.0	–	–	–	IC50 PBMC ([2]; incubation for 24 h): 20.7 µg/mL (≈ 31.2 µM); IC50 U266 (U266 myeloma cell line; incubation for 24 h): >37.5 µg/mL; IC50 NCI-H929 ([1]; incubation for 24 h): 20.3 µg/mL (≈ 30.6 µM); IC50 OPM-2 (OPM-2 myeloma cell line; incubation for 24 h): 26.3 µg/mL (≈ 39.7 µM); IC50 R-MCF7 [3]: 4.8 µg/mL (≈ 7.24 µM); IC50 MCF7 (MCF7 cells): 4.3 µg/mL (≈ 6.49 µM)
CC1CC2OC3(OC2C(C)(C)O)C1C1(C)CCC24CC25CCC(OC2OCC(O)C(O)C2O)C(C)(C)C5CCC4C1(C)C3O [Compound 5, cimigenol-3-O-α-L-arabinopyranoside]	–	–	–	–	95.0 ± 3.1	95.8 ± 2.8	93.5 ± 3.5	98.8 ± 0.9	97.0 ± 1.2	96.3 ± 1.3	99.8 ± 2.0	103.3 ± 1.4	103.5 ± 1.3	no activity	no activity	no activity	–
CC1CC2OC3(OC2C(C)(C)O)C1C1(C)CCC24CC25CCC(OC2OCC(O)C(O)C2O)C(C)(C)C5CCC4C1(C)C3O [Compound 6, cimigenol-3-O-β-D-xylopyranoside]	–	–	–	–	94.8 ± 3.0	94.5 ± 3.5	93.5 ± 3.2	98.5 ± 0.8	91.8 ± 3.4	88.5 ± 0.3	101.7 ± 0.9	99.5 ± 1.8	100.5 ± 2.4	no activity	no activity	no activity	activity against R-MCF7 (in words) [3]: no activity; activity against MCF7 (in words) (MCF7 cells): no activity
COC(C)(C)C1OC23OC1CC(C)C2C1(C)CCC24CC25CCC(OC2OCC(O)C(O)C2O)C(C)(C)C5CCC4C1(C)C3O [Compound 8, 25-O-methyl-cimigenol-3-O-β-D-xylopyranoside]	–	104.3 ± 0.3	96.3 ± 1.7	64.3 ± 8.0	102.0 ± 3.0	97.5 ± 3.8	81.0 ± 11.9	84.8 ± 5.0	31.3 ± 6.6	5.0 ± 1.7	97.8 ± 2.1	84.3 ± 4.5	27.0 ± 9.4	–	–	–	IC50 PBMC ([2]; incubation for 24 h): 26.0 µg/mL (≈ 41 µM); IC50 U266 (U266 myeloma cell line; incubation for 24 h): 31.1 µg/mL (≈ 49 µM); IC50 NCI-H929 ([1]; incubation for 24 h): 14.2 µg/mL (≈ 22.4 µM); IC50 OPM-2 (OPM-2 myeloma cell line; incubation for 24 h): 20.7 µg/mL (≈ 32.6 µM)
C=C(C)C1OC23OC1CC(C)C2C1(C)CCC24CC25CCC(OC2OCC(O)C(O)C2O)C(C)(C)C5CCC4C1(C)C3O [Compound 9, 25-anhydrocimigenol-3-O-α-L-arabinopyranoside]	–	–	–	–	101.5 ± 5.1	101.8 ± 4.3	101.3 ± 3.3	96.0 ±1.0	92.8 ± 1.7	92.0 ± 1.5	95.8 ± 2.4	100.0 ± 1.9	104.0 ± 4.7	no effect	no effect	no effect	–
CC(=O)O[C@@H]1C[C@@]23C[C@@]24CC[C@H](O[C@@H]2OC[C@@H](O)[C@H](O)[C@H]2O)C(C)(C)[C@@H]4CC=C3[C@]2(C)C[C@@H]3O[C@@]4(O)[C@H](OC(C)(C)[C@H]4O)[C@@H](C)[C@@H]3[C@@]12C [cimiracemoside A]	41	–	–	–	–	–	–	–	–	–	–	–	–	–	–	–	–
